Measured values from patent publication US4500525A, “Pharmacologically active pyrazolo/4,3-c/pyridines” (Gruppo Lepetit S.p.A., priority 1982, dated 1985).
Counter-ions that a name gives are not always drawn. Each block holds one compound with its values, some of them ahead of it.

How the values were obtained:
renal hypertensive dogs = test: lowering of blood pressure in renal hypertensive dogs; type: in vivo, dog
Method: In renal hypertensive dogs, preparated essentially according to H. Golblatt, J. Linch. and R. F. Manzal, J. Exp. Med. 59, 347 (1934), some of the compounds of the invention show a considerable lowering of the systolic blood pressure without affecting the heart rate to a great extent.
The test compounds are administered orally and the pressure is measured according to the method of H. Friebel, E. Vrenden, Arch. Exp. Phat. Pharmak. 232, 419 ([…]).
In the above test system the compound of example 100 determines a 20% drop of the blood pressure when administered 0.5 mg/kg p.o., the compound of example 106 determines a 22% drop when administered 1 mg/kg p.o., the compounds of Examples 134 and 135 determine a drop of 34% and 25%, respectively, when administered 5 mg/kg p.o., and the compound of example 107 determines a 43% drop of the blood pressure when administered 10 mg/kg p.o.

α1 adrenoceptor = test: displacement of ^3 H-prazosin specifically bound in rat brain homogenate (radioligand binding); conditions: ^3 H Prazosin binding, Ki calculated from IC50, read-out: K1 (nM) ^3 H Prazosin
Method: The compounds of the invention were tested […] for their ability to compete with labelled ligands of α1, α2 -adrenergic,and dopaminergic receptors. Said tests were made essentially following:
(b) the method described by P. Greengrass et al., European Journal of Pharmacology, Vol. 55, pp. 323-326, (1979), which uses the specific displacement of ^3 H-prazosin specifically bound in rat brain homogenate, for the identification of substances interacting with the so called "α1 "adrenoceptor;
The above mentioned methods are radioligand binding assays and are based on the knowledge that many natural or synthetic physiologically active substances such as neurotransmitters, hormones, and others, specifically link to cellular receptors, generally of proteic nature. They are generally obtained from a tissue or organ of a suitable test-animal after isolation and homogenization of said tissue or organ.
The homogenate is twice centrifugated to separate and partially purify the receptorial fraction (synaptosomes).
The labelled substances employed are known to specifically bind their receptors, so the drug-receptor dissociation constants obtained for each test compound under standard conditions are a measure of their actual binding affinities. The validation of the above methods in predicting a possible pharmacological activity was carried out comparing the in vitro binding constants of a number of […] agonist or antagonist of the adrenergic or dopaminergic system with their in vivo activities. The α1 -adrenergic activity is essentially correlated with a peripheral vasodilatation. The α2 -adrenergic activity is essentially correlated with a hypotensive action of central origin, and the dopaminergic activity is correlated with a neuroleptic action. IC50 values, defined as the drug concentration that cause 50% inhibition of the specific ^3 H ligant binding, are observed by incubating from 5 to 7 different dilutions of the tested compound in duplicate or triplicate. Ki, inhibition constant, values are calculated from the following formula: [formula] wherein IC50 is defined as above, C is the concentration of the ^3 H ligand, and KD is the dissociation constant of the ^3 H ligand-receptor complex.

[1] = positive inotropic activity in conventional in vitro tests (isolated preparation)
mice = test: pole climbing avoidance test; type: in vivo; conditions: i.p., treated/untreated mice
Text: The neuroleptic activity of the compounds of the invention was investigated by means of the "pole climbing avoidance test", as described by L. Cook et al. (Ann. N.Y. Acad. Sci. 66, 740, 1957) and subsequently modified by Maffii et al. (J. Pharm. Pharmac., 11, 129, 1959). As a representative example, the compound of example 38 scores as follows in the above test:
The symbols CR, CR2, and UR corresponds to the primary, secondary conditioned response and to the unconditioned response according to the above test.

[2] = system: spontaneously hypertensive rat; test: lowering of arterial pressure in the spontaneously hypertensive rat; type: in vivo; conditions: p.o. 50 mg/kg
Method: Journal, Vol. 27, p. 282, (1963). The arterial pressure was evaluated according to H. Fribel, E. Vredom, described in Arch. Exp. Phat. Pharmak. Vol. 232, p. 416, (1958). […] This 15% threshold is generally considered predictive of significant antihypertensive activity.

SMILES: Fc1ccc(Cn2nc(-c3ccc(F)cc3)c3c2CCNC3)cc1 [Example 106]
drop of the blood pressure (renal hypertensive dogs; 1 mg/kg p.o.): 22%
Ki (α1 adrenoceptor): 0.331 nM

SMILES: CCn1nc(-c2cccs2)c2c1CCNC2 [Example 102, 1-ethyl-3-(2-thienyl)-4,5,6,7-tetrahydro-1H-pyrazolo/4,3-c/pyridine, methanesulfonate]
positive inotropic activity [1]: good positive inotropic activity
antagonism of the inotropic activity by propanolol (β-adrenergic effects) ([1]; propanolol): not antagonized by propanolol

SMILES: CN1CCc2[nH]nc(-c3ccc(F)cc3)c2C1 [Example 38, 3-(4-fluorophenyl)-5-methyl-4,5,6,7-tetrahydro-1H-pyrazolo/4,3-c/pyridine]
CR2 (secondary conditioned response) (mice; 10 mg/kg): 9/10
CR (primary conditioned response) (mice; 10 mg/kg): 3/10
UR (unconditioned response) (mice; 10 mg/kg): 0/10
CR2 (secondary conditioned response) (mice; 25 mg/kg): 10/10
CR (primary conditioned response) (mice; 25 mg/kg): 8/10
UR (unconditioned response) (mice; 25 mg/kg): 0/10

SMILES: Fc1ccc(-c2nn(Cc3ccccc3)c3c2CNCC3)cc1 [Example 100, 3-(4-fluorophenyl)-1-phenylmethyl-4,5,6,7-tetrahydro-1H-pyrazolo/4,3-c/pyridine, hydrochloride]
lowering of the pressure [2]: 30%
drop of the blood pressure (renal hypertensive dogs; 0.5 mg/kg p.o.): 20%
Ki (α1 adrenoceptor): 14.7 nM

Continued, in another order:

Ki (α1 adrenoceptor): 23.6 nM
SMILES: Cc1ccc(Cn2nc(-c3ccc(F)cc3)c3c2CCNC3)cc1 [Example 107, 3-(4-fluorophenyl)-1-(4-methylphenylmethyl)-4,5,6,7-tetrahydro-1H-pyrazolo/4,3-c/pyridine, methanesulfonate]
drop of the blood pressure (renal hypertensive dogs; 10 mg/kg p.o.): 43%

Ki (α1 adrenoceptor): 6.35 nM
SMILES: CN1CCc2c(c(-c3ccc(F)cc3)nn2Cc2ccc(F)cc2)C1 [Example 134, 3-(4-fluorophenyl)-1-(4-fluorophenylmethyl)-5-methyl-4,5,6,7-tetrahydro-1H-pyrazolo/4,3-c/pyridine, hydrochloride]
drop of the blood pressure (renal hypertensive dogs; 5 mg/kg p.o.): 34%

Ki (α1 adrenoceptor): 47.2 nM
SMILES: Cc1ccc(Cn2nc(-c3ccc(F)cc3)c3c2CCN(C)C3)cc1 [Example 135, 3-(4-fluorophenyl)-1-(4-methylphenylmethyl)-5-methyl-4,5,6,7-tetrahydro-1H-pyrazolo/4,3-c/pyridine, methanesulfonate]
drop of the blood pressure (renal hypertensive dogs; 5 mg/kg p.o.): 25%
